Test results taken from paper PMC10353187, “Discovery of a new potent oxindole multi-kinase inhibitor among a series of designed 3-alkenyl-oxindoles with ancillary carbonic anhydrase inhibitory activity as antiproliferative agents” (BMC Chemistry, 2023).

Assays:
Experiment in all cases: NCI-60 single-dose antiproliferative assay (SRB)
Type in all cases: cell-based
HL-60(TB) = settings: Homo sapiens, 10 μM single dose, Leukemia, read-out: Cell Growth inhibition Percent
HCC-2998 = settings: Homo sapiens; 10 μM single dose; HCC-2998, Colon cancer; read-out: Cell Growth inhibition Percent
Outline: (§1)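 Single 10 μM dose, 48 h at 37 °C in RPMI 1640 with 5% FBS, cells seeded 24 h before dosing. TCA fixation, sulforhodamine B staining, absorbance 515 nm; percent growth derived against time-zero and untreated control plates, triplicate wells.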

UACC-257 = settings: Homo sapiens; 10 μM single dose; UACC-257, Melanoma; read-out: Cell Growth inhibition Percent
Outline: as §1

SK-MEL-28 = settings: Homo sapiens; 10 μM single dose; SK-MEL-28, Melanoma; read-out: Cell Growth inhibition Percent
Outline: as §1

NCI/ADR-RES = settings: Homo sapiens, 10 μM single dose, Ovarian Cancer, read-out: Cell Growth inhibition Percent
Outline: as §1

Work on `O=C(Nc1ccc(NC=C2C(=O)Nc3ccccc32)cc1)Nc1nccs1` [Compound 15c, 1-{4-[((2-Oxoindolin-3-ylidene)methyl)amino]phenyl}-3-(thiazol-2-yl)urea] yielded an inhibition at 10 µM (HL-60(TB)) of 58%, an inhibition at 10 µM (HCC-2998) of 26.1% and an inhibition at 10 µM (UACC-257) of 28.4%. For the same compound, the inhibition at 10 µM (SK-MEL-28) was 38.7% and the inhibition at 10 µM (NCI/ADR-RES) was 59.2%.
